In the NIST ThermoML archive (doi:10.1021/je100145f):

Assay: xn = mol fraction of the nth substance listed
Details: 101 kPa, Liquid, Vibrating tube method

N#Cc1ccccc1 [benzonitrile] + CCCCCCCCC
mass density [kg/m3]
Details | 285.15 K | 288.15 K | 293.15 K | 298.15 K | 303.15 K | 308.15 K | 313.15 K
x1 = 0.0239 | 728.45 | 726.13 | 722.24 | 718.34 | 714.42 | 710.49 | 706.54
x1 = 0.0499 | 732.81 | 730.47 | 726.57 | 722.65 | 718.72 | 714.77 | 710.81
x1 = 0.0989 | 741.4 | 739.05 | 735.11 | 731.16 | 727.2 | 723.22 | 719.23
x1 = 0.1985 | 760.34 | 757.95 | 753.95 | 749.94 | 745.93 | 741.89 | 737.84
x1 = 0.2542 | 771.77 | 769.36 | 765.34 | 761.3 | 757.25 | 753.19 | 749.11
x1 = 0.2998 | 781.58 | 779.16 | 775.11 | 771.05 | 766.97 | 762.89 | 758.79
x1 = 0.4005 | 804.92 | 802.47 | 798.37 | 794.26 | 790.14 | 786 | 781.85
x1 = 0.4966 | 829.64 | 827.16 | 823.01 | 818.85 | 814.68 | 810.5 | 806.31
x1 = 0.5998 | 859.12 | 856.6 | 852.4 | 848.19 | 843.96 | 839.73 | 835.48
x1 = 0.6996 | 891.01 | 888.45 | 884.18 | 879.91 | 875.63 | 871.34 | 867.05
x1 = 0.7999 | 926.93 | 924.34 | 920 | 915.67 | 911.33 | 906.99 | 902.64
x1 = 0.9001 | 967.24 | 964.61 | 960.22 | 955.83 | 951.44 | 947.05 | 942.65
x1 = 0.9497 | 988.96 | 986.32 | 981.91 | 977.49 | 973.08 | 968.67 | 964.25
x1 = 0.9805 | 1003.05 | 1000.4 | 995.97 | 991.55 | 987.13 | 982.7 | 978.27
x1 = 1 | 1012.21 | 1009.55 | 1005.12 | 1000.69 | 996.26 | 991.83 | 987.4

N#Cc1ccccc1 [benzonitrile] + CCCCCCCC
mass density [kg/m3]
Details | 283.15 K | 288.15 K | 293.15 K | 298.15 K | 303.15 K | 308.15 K | 313.15 K | 318.15 K
x1 = 0.022 | 714.94 | 710.93 | 706.9 | 702.86 | 698.79 | 694.71 | 690.6 | 686.47
x1 = 0.0576 | 721.95 | 717.92 | 713.87 | 709.81 | 705.72 | 701.62 | 697.49 | 693.34
x1 = 0.102 | 731.07 | 727.01 | 722.94 | 718.85 | 714.74 | 710.61 | 706.47 | 702.29
x1 = 0.1999 | 752.43 | 748.32 | 744.2 | 740.06 | 735.9 | 731.73 | 727.54 | 723.33
x1 = 0.2998 | 776.16 | 772.01 | 767.84 | 763.66 | 759.46 | 755.25 | 751.02 | 746.78
x1 = 0.4001 | 802.02 | 797.83 | 793.63 | 789.41 | 785.18 | 780.93 | 776.67 | 772.39
x1 = 0.4637 | 819.57 | 815.35 | 811.12 | 806.89 | 802.63 | 798.37 | 794.09 | 789.79
x1 = 0.4997 | 829.9 | 825.68 | 821.44 | 817.19 | 812.93 | 808.65 | 804.35 | 800.04
x1 = 0.5004 | 830.12 | 825.9 | 821.66 | 817.41 | 813.14 | 808.86 | 804.56 | 800.25
x1 = 0.6001 | 860.7 | 856.42 | 852.14 | 847.85 | 843.55 | 839.23 | 834.9 | 830.56
x1 = 0.7001 | 894.21 | 889.88 | 885.55 | 881.22 | 876.87 | 872.51 | 868.15 | 863.78
x1 = 0.7998 | 930.65 | 926.27 | 921.9 | 917.52 | 913.13 | 908.74 | 904.34 | 899.94
x1 = 0.9001 | 970.69 | 966.28 | 961.87 | 957.46 | 953.05 | 948.63 | 944.21 | 939.78
x1 = 0.95 | 991.86 | 987.44 | 983.01 | 978.59 | 974.17 | 969.74 | 965.31 | 960.88
x1 = 0.9801 | 1005.05 | 1000.62 | 996.19 | 991.77 | 987.34 | 982.91 | 978.48 | 974.05
x1 = 1 | 1013.99 | 1009.55 | 1005.12 | 1000.69 | 996.26 | 991.83 | 987.4 | 982.96
